Data set [1] concerns human lung cancer NCI-H1581 nude mouse subcutaneous xenograft tumor. Kind of data set: Efficacy in human lung cancer NCI-H1581 nude mouse subcutaneous xenograft tumor model. The data set is classed as in vivo. The source says:
The human lung cancer NCI-H1581 cell strain (preserved by Shanghai Institute of Materia Medica, Chinese Academy of Sciences) was inoculated subcutaneously in the right axilla of nude mice with an inoculation amount of the cells of 5×10^6 cells/mouse. The formed xenograft tumor was directly inoculated for use.
The tumor tissue in the vigorous growth phase was cut into about 1.5 mm^3 and was inoculated subcutaneously in the right axilla of the nude mouse under sterile conditions. The diameter of the subcutaneous xenograft tumor in the nude mouse was measured using a vernier caliper, and the animals were randomly grouped after the tumors grew to an average volume of about 150-160 mm^3. Animals in the Example 3 sample group were orally administered at 10 mg/kg, 5 mg/kg, and 2.5 mg/kg once a day for two consecutive weeks. Animals in the […] (AZD4547) were orally administered at 12.5 mg/kg once a day for two consecutive weeks. Throughout the experiment, the diameter of the xenograft tumor was measured 2 times a week, and the body weight of the mice was measured at the same time. The tumor volume (TV) was calculated as follows: TV=½×a×b^2, wherein a and b represent the length and width, respectively. The relative tumor volume (RTV) was calculated from the measurement results using the following formula: RTV=Vt/V0, wherein V0 is the tumor volume measured at the time of grouping and administration (d0), and Vt is the tumor volume at each measurement. The evaluation index of the anti-tumor activity was the relative tumor proliferation rate T/C (%), which was calculated as follows: T/C (%)=(TRTV/CRTV)×100%, wherein TRTV represents RTV of the treatment group; CRTV represents RTV of the negative control group.
On the technique in general: A xenograft is tissue or cells of one species grown in another, often human tumour cells in immunodeficient mice.

Data set [2] can be described thus: Solubility experiments of compound of formula (I) and salts thereof. Conditions: 25° C. The data set is classed as physicochemical.
Data set [3] in a line: Solid stability study of dihydrochloride salt crystal form I. The data set is classed as physicochemical. The source says: (in a covered sample flask) for 7 days, and for physical stability at room temperature/92.5% RH (uncovered) for 10 days.
The nature of data set [4]: Water sorption and desorption experiments (DVS hygroscopicity). The data set is classed as physicochemical. The settings on record: 40%-80% relative humidity, 25° C.
Data set [5] can be described thus: Solid grinding stability: dropwise addition of solvents and grinding. Conditions: ground. The data set is classed as physicochemical.
A short description of data set [6]: Solid grinding stability: solid grinding, XRPD. In kind it is physicochemical. Conditions: 20 mg ground in a mortar for 2 min and 5 min. As for the experimental part:
20 mg of the sample in Example 3 was weighed out, added to a mortar, and ground for 2 min and 5 min, respectively. Then, the sample was characterized by XRPD.

Setting [7] is: Na2HPO4-citric acid buffer (pH 4.6).
Setting [8] is: 40° C./75% RH (uncovered) for 7 days.
Where [9] appears, read: 60° C. (covered sample flask) for 7 days.

Counter-ions that a name gives are not always drawn.

Take `COc1cc(CCc2cc(NC(=O)c3ccc(N4C[C@@H](C)N[C@@H](C)C4)cc3)n[nH]2)cc(OC)c1` [AZD4547, reference compound]: the “T/C (relative tumor proliferation rate)” value in data set [1] (12.5 mg/kg orally once a day for two consecutive weeks) stood at 20.01%.

On to `CNC(=O)c1cccc2cc(Oc3ccnc(NC(=O)c4ccc(N5C[C@@H](C)N[C@@H](C)C5)cc4)c3)ccc12` [Compound of formula (I)], for which the Solubility (usually how much of the substance goes into solution per volume) turned out to be 45 µg/mL in data set [2] (setting [7]) and 8 µg/mL in data set [2] (deionized water).

Regarding `CNC(=O)c1cccc2cc(Oc3ccnc(NC(=O)c4ccc(N5C[C@@H](C)N[C@@H](C)C5)cc4)c3)ccc12` [Dihydrochloride salt crystal form I], the Purity in data set [3] (setting [8]) was 99.86; in data set [3] (setting [9]) it was 99.85; in data set [3] (T0), 99.85. Also, the “XRPD (crystal form)” value in data set [3] (setting [8]), in data set [3] (setting [9]) and in data set [3] (room temperature/92.5% RH (uncovered) for 10 days) was “Not changed” each time. Further, the “Hygroscopicity (%)” value in data set [4] is recorded as 0.65%. Besides, the “Solvent grinding result (crystal form)” value in data set [5] (Acetone added dropwise), in data set [5] (Acetonitrile added dropwise), in data set [5] (Butanone added dropwise), in data set [5] (Ethanol added dropwise), in data set [5] (Ethyl acetate added dropwise) and in data set [5] (Isopropanol added dropwise) was “Crystal form I” in each case. The “Solvent grinding result (crystal form)” value in data set [5] (Methanol added dropwise) is “Crystal form I”. For the same compound, the “Crystal form of the ground sample (XRPD)” value in data set [6] is “not changed”. In addition, the figures for the “T/C (relative tumor proliferation rate)” value in data set [1] (2.5 mg/kg orally once a day for two consecutive weeks), in data set [1] (5 mg/kg orally once a day for two consecutive weeks) and in data set [1] (10 mg/kg orally once a day for two consecutive weeks) were 49.06%, 33.22% and 17.17%, respectively. The “Effect on the growth of xenograft tumors” value in data set [1] (10 mg/kg, 5 mg/kg and 2.5 mg/kg orally once a day for two consecutive weeks) is reported as “significant inhibitory effect”. Besides, the “Animal condition and mortality during the experiment” value in data set [1] (10, 5 and 2.5 mg/kg orally once a day for two weeks, nude mice) is on record as “no mice died”.

`C[C@@H]1COC(Nc2ccc3ncnc(Nc4ccc(OCc5nccs5)c(Cl)c4)c3c2)=N1.O=C(O)/C=C\C(=O)O` [Maleate salt]: the Solubility in data set [2] (setting [7]) was found to be 30 µg/mL; in data set [2] (deionized water), 2000 µg/mL. The “Hygroscopicity (%)” value in data set [4] was found to be 0.81%.
